# According to US5215769A, “Calcium fortified dressing salad product” (The Procter & Gamble Company, priority 1992, dated 1993):
# What was measured:
# [1] = physchem
# Text: The exact method for determining this is described hereinafter.
# The method of solubility used to determine the data in Table I, is described in the Analytical Methods section below.
# [2] = Bioavailability of calcium citrate malate (statement); conditions: even under neutral conditions
Compound,solubility [1] [mg/mL],bioavailability [2]
O=C(O)CC(O)C(=O)O (racemic) [calcium malate],660,–
calcium citrate malate,–,bioavailable
